According to US20200360520A1, “USE OF RIFAMYCIN-QUINOLIZIDONE COUPLING MOLECULE” (priority 2019, published 2020):
In brackets after ≈: the same amount, converted by molar mass. Where two headings read alike, the source gives them in different places.

Legend:
Assay in all cases: MIC by micro broth dilution method (resazurin microtiter assay)
Format in all cases: cell-based
[1] = tested on: Mycobacterium avium; details: MH Culture Medium, read-out: Minimum Inhibitory Concentration (MIC)
[2] = tested on: Mycobacterium kansasii; details: Mycobacterium kansasii, MH Culture Medium, read-out: Minimum Inhibitory Concentration (MIC)
[3] = tested on: Mycobacterium intracellulare; details: Mycobacterium intracellulare, MH Culture Medium, read-out: Minimum Inhibitory Concentration (MIC)
[4] = tested on: Mycobacterium massiliense; details: Mycobacteroides abscessus, MH Culture Medium, read-out: Minimum Inhibitory Concentration (MIC)
[5] = tested on: Mycobacterium fortuitum; details: Mycolicibacterium fortuitum, MH Culture Medium, read-out: Minimum Inhibitory Concentration (MIC)
[6] = tested on: Mycodacterium chelonei; details: MH Culture Medium; Chelonei (standard strain); read-out: Minimum Inhibitory Concentration (MIC)
[7] = clinically isolated strain Avium (S31)
[8] = clinically isolated strain Avium (S123)
[9] = clinically isolated strain Avium (S559)
[10] = clinically isolated strain Avium (S568)
[11] = clinically isolated strain Avium (S577)
[12] = clinically isolated strain Avium (S597)
[13] = clinically isolated strain Avium (S602)
[14] = clinically isolated strain Kansasii (S9)
[15] = clinically isolated strain Kansasii (S199)
[16] = clinically isolated strain Kansasii (S520)
[17] = clinically isolated strain Kansasii (S609)
[18] = Intracellulare (standard strain)
[19] = clinically isolated strain Intracellulare (S90)
[20] = clinically isolated strain Intracellulare (S261)
[21] = clinically isolated strain Intracellulare (S269)
[22] = clinically isolated strain Intracellulare (S290)
[23] = clinically isolated strain Intracellulare (S291)
[24] = clinically isolated strain Intracellulare (S298)
[25] = clinically isolated strain Intracellulare (S541)
[26] = clinically isolated strain Intracellulare (S623)
[27] = clinically isolated strain Intracellulare (ZPS)
[28] = clinically isolated strain intracellulare (S442)
[29] = clinically isolated strain Massiliense (D10)
[30] = clinically isolated strain Massiliense (D14)
[31] = clinically isolated strain Massiliense (D18)
[32] = clinically isolated strain Fortuitum (S103)
[33] = clinically isolated strain Fortuitum (S111)

MIC ([1]; Avium (standard strain)) [µg/mL]	MIC [1, 7] [µg/mL]	MIC [1, 8] [µg/mL]	MIC [1, 9] [µg/mL]	MIC [1, 10] [µg/mL]	MIC [1, 11] [µg/mL]	MIC [1, 12] [µg/mL]	MIC [1, 13] [µg/mL]	MIC ([2]; Kansasii (standard strain)) [µg/mL]	MIC [2, 14] [µg/mL]	MIC [2, 15] [µg/mL]	MIC [2, 16] [µg/mL]	MIC [2, 17] [µg/mL]	MIC [3, 18] [µg/mL]	MIC [3, 19] [µg/mL]	MIC [3, 20] [µg/mL]	MIC [3, 21] [µg/mL]	MIC [3, 22] [µg/mL]	MIC [3, 23] [µg/mL]	MIC [3, 24] [µg/mL]	Structure (SMILES)	other results
1 (≈ 2.49 µM)	8 (≈ 19.9 µM)	0.5 (≈ 1.25 µM)	1 (≈ 2.49 µM)	0.5 (≈ 1.25 µM)	0.5 (≈ 1.25 µM)	2 (≈ 4.98 µM)	4 (≈ 9.96 µM)	0.0625 (≈ 0.156 µM)	0.0625 (≈ 0.156 µM)	0.0625 (≈ 0.156 µM)	0.0625 (≈ 0.156 µM)	0.0625 (≈ 0.156 µM)	0.25 (≈ 0.623 µM)	2 (≈ 4.98 µM)	2 (≈ 4.98 µM)	2 (≈ 4.98 µM)	2 (≈ 4.98 µM)	1 (≈ 2.49 µM)	2 (≈ 4.98 µM)	COc1c(N2C[C@@H]3CCCN[C@@H]3C2)c(F)cc2c(=O)c(C(=O)O)cn(C3CC3)c12 [Moxifloxacin, moxifloxacin]	MIC [3, 25]: 64 µg/mL (≈ 159 µM); MIC [3, 26]: 2 µg/mL (≈ 4.98 µM); MIC [3, 27]: 1 µg/mL (≈ 2.49 µM); MIC [3, 28]: 2 µg/mL (≈ 4.98 µM); MIC [4, 29]: 32 µg/mL (≈ 79.7 µM); MIC [4, 30]: 32 µg/mL (≈ 79.7 µM); MIC [4, 31]: 8 µg/mL (≈ 19.9 µM); MIC ([5]; Fortuitum (standard strain)): 1 µg/mL (≈ 2.49 µM); MIC [5, 32]: 1 µg/mL (≈ 2.49 µM); MIC [5, 33]: 0.5 µg/mL (≈ 1.25 µM); MIC [6]: 4 µg/mL (≈ 9.96 µM)
0.0625 (≈ 0.0738 µM)	0.0625 (≈ 0.0738 µM)	0.0625 (≈ 0.0738 µM)	0.0625 (≈ 0.0738 µM)	0.0625 (≈ 0.0738 µM)	0.0625 (≈ 0.0738 µM)	0.0625 (≈ 0.0738 µM)	0.0625 (≈ 0.0738 µM)	0.0625 (≈ 0.0738 µM)	0.0625 (≈ 0.0738 µM)	0.0625 (≈ 0.0738 µM)	0.0625 (≈ 0.0738 µM)	0.0625 (≈ 0.0738 µM)	0.0625 (≈ 0.0738 µM)	0.125 (≈ 0.148 µM)	0.25 (≈ 0.295 µM)	0.0625 (≈ 0.0738 µM)	0.0625 (≈ 0.0738 µM)	0.0625 (≈ 0.0738 µM)	0.5 (≈ 0.59 µM)	CO[C@H]1/C=C/O[C@@]2(C)Oc3c(C)c(O)c4c(c3C2=O)C2=NC3(CCN(CC(C)C)CC3)NC2=C(NC(=O)/C(C)=C\C=C\[C@H](C)[C@H](O)[C@@H](C)[C@@H](O)[C@@H](C)[C@H](OC(C)=O)[C@@H]1C)C4=O [Rifabutin, rifabutin]	MIC [3, 25]: 0.125 µg/mL (≈ 0.148 µM); MIC [3, 26]: 0.25 µg/mL (≈ 0.295 µM); MIC [3, 27]: 0.0625 µg/mL (≈ 0.0738 µM); MIC [3, 28]: 0.0625 µg/mL (≈ 0.0738 µM); MIC [4, 29]: > 64 µg/mL; MIC [4, 30]: 64 µg/mL (≈ 75.6 µM); MIC [4, 31]: 64 µg/mL (≈ 75.6 µM); MIC ([5]; Fortuitum (standard strain)): 4 µg/mL (≈ 4.72 µM); MIC [5, 32]: 32 µg/mL (≈ 37.8 µM); MIC [5, 33]: 4 µg/mL (≈ 4.72 µM); MIC [6]: 64 µg/mL (≈ 75.6 µM)
